# Data: patent publication US11046945B2, “Labeled glutaminase proteins, isolated glutaminase protein mutants, methods of use, and kit” (CORNELL UNIVERSITY, priority 2013, dated 2021)
# Target: T1, 488-GAC (WT) (Mus musculus, UniProt D3Z7P3)
# T1 construct: plasmid (residues 72-603 for GAC, 72-674 for KGA); His-tag with thrombin cleavage site (N, cleaved yes); made in house; host or cells: pET23a vector
# T1 sequence (D3Z7P3 72-603 isoform D3Z7P3-2): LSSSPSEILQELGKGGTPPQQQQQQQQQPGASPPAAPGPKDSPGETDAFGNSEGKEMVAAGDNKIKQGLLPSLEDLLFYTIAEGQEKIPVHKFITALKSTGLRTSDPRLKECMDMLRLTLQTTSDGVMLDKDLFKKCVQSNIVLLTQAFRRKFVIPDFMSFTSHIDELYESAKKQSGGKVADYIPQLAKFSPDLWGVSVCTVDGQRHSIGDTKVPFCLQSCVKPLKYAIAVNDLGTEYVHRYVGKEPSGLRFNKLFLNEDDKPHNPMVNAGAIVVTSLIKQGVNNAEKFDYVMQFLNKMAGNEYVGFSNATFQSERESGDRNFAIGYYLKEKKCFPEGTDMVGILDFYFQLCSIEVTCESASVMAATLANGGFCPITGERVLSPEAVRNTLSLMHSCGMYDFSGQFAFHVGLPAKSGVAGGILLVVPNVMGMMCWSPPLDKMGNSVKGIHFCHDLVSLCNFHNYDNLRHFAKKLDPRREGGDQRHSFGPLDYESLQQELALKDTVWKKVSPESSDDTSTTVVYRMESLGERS
# Experiment: Real-time binding read-out by 488-GAC fluorescence quenching
# Settings: for quenching of 488-GAC fluorescence (direct binding): 10 nM 488-GAC, no QSY 9-GAC
# Description: Real-time fluorescence monitoring of 488-GAC fluorescence and NADH fluorescence was performed on a Varian Carry Eclipse Fluorometer, whereas small molecule inhibition and binding titrations were performed in a 96-well format using Grenier non-binding 96-well plates in a Tecan Saphire absorbance and fluorescence plate reader. Samples for monitoring real time binding of 968 to 488-GAC were prepared by adding 10 […] (490 nm excitation/520 nm emission). Similarly, this method was replicated for monitoring real time binding of 968 to KGA and mutant forms of GAC, namely 488-D391K-GAC and 488-K316E-D391K-R459E-GAC. Titrations of 968 with mutant forms of GAC were done in triplicate and quantified by the following equation
# [formula] where F is the normalized fluorescence at given drug concentration (i.e., F/F0), and Fsat is the normalized fluorescence at saturating concentrations of drug, as shown in FIG. 7A. […] 10 nM WT GAC was added and allowed to equilibrate 2 minutes before beginning to monitor fluorescence of 488-GAC (490 nm excitation, 520 nm emission) and NADH fluorescence (340 nm excitation, 490 nm emission). […] The activity of GAC was indirectly measured by the NADH produced by the added glutamate dehydrogenase, which converts the product of glutaminase activity, glutamate, to α-ketoglutarate and ammonia through reducing NAD^+ to NADH. Because solutions containing glutamine undergo non-enzymatic degradation to glutamate, samples were further analyzed by subtracting the evolved NADH produced by glutaminase in the presence of 968, BPTES, or the equivalent volume of DMSO as a control, by the evolved NADH produced in the absence of glutaminase under identical experimental conditions. Evolved NADH was quantified using a standard curve of freshly prepared NADH (Sigma) in 50 mM Tris-Acetate pH=8.5, 0.1 mM EDTA.
# Procedures for the described real-time binding and inhibition assays were adapted for 96-well microtiter format with minor alterations. […] Quenching was quantified by subtracting the normalized fluorescence by one (i.e., 1-F/F0). […]
Compound,quenching of 488-GAC fluorescence (direct binding),"binding to 488-labeled GAC (WT) (20 nM 488-labeled protein, 968 titration)"
O=C(Cc1ccccc1)Nc1nnc(CCSCCc2nnc(NC(=O)Cc3ccccc3)s2)s1 [BPTES],without affecting the fluorescence emission,–
CN(C)c1ccc(C2Nc3ccc4ccccc4c3C3=C2C(=O)CC(C)(C)C3)cc1Br (stereo not drawn) [compound 968],concentration dependent quenching,capable of binding
